From patent publication US20240173333A1, “Treating Alagille Syndrome (ALGS)” (priority 2022, published 2024)
Marks after values point to notes of the source that are not given here.

Key:
[1] = tested on: patients with Alagille syndrome (ALGS); assay: Pooled ASSERT and ASSERT-EXT: sleep parameters; assay type: in vivo, human
Method: In the completed 24-week ASSERT study, patients with ALGS with history of significant pruritus and elevated serum BAs were randomized 2:1 to once-daily odevixibat 120 μg/kg or placebo, respectively. Patients who completed ASSERT could enter ASSERT-EXT, an ongoing, 72-week open-label extension study in which all patients receive odevixibat 120 μg/kg/day. This pooled analysis included all odevixibat-treated patients from ASSERT and/or ASSERT-EXT and spans from patients' first dose of odevixibat to a data cut-off of Sep. 9, 2022. Assessments over up to 36 weeks of treatment included change in observer-reported scratching scores and sleep parameters, as well as levels of serum BAs, autotaxin (a proposed meditator of pruritus), and 7 alpha-hydroxy-4-cholesten-3-one (C4; a marker of bile acid synthesis). Safety evaluations included assessment of alanine aminotransferase (ALT), total bilirubin, and treatment-emergent adverse events (TEAEs).

[2] = tested on: patients with Alagille syndrome (ALGS); assay: ASSERT pruritus responders: ObsRO sleep parameters
Description: Treatment with concomitant medications for pruritus was permitted provided the patient was on a stable dosage for ≥4 weeks prior to enrollment that was maintained throughout the study.
Pruritus responders were defined as patients having a ≥1-point decrease in ObsRO scratching score from baseline to weeks 21-24).

[3] = tested on: patients with Alagille syndrome (ALGS); assay: ASSERT: PedsQL total and domain scores; assay type: in vivo, human
Description: […] Additional secondary efficacy endpoints were as follows: • Change from baseline in pruritus to Month 6 (Weeks 21 to 24) as measured by the Albireo PRO instrument. • Percentage of patients achieving a clinically meaningful decrease in pruritus (pruritis responders) as measured by the ObsRO/PRO instruments. • Change from baseline through Week 24 in patient reported and observer reported itching and scratching severity scores, respectively, for the morning assessment and for the evening assessment; sleep parameters as measured with the Albireo ObsRO/PRO instruments (e.g., tiredness and number of awakenings); and PedsQL subdomain scores. • Assessment of Global Symptom Relief to from baseline to Weeks 4, 12, and 24 as measured by patient, caregiver, and clinician Global Impression of Symptoms GIS (PGIS, CaGIS, CGIS) items. • Change from baseline to Week 24 in xanthomatosis as assessed by the Clinician Xanthoma Scale; serum bile acid levels; serum ALT concentration; and serum AST concentration; gamma-glutamyl transferase concentration; total bilirubin concentration. • Change from baseline in biochemical markers and measures of bile acid synthesis (autotaxin, p-C4, only in patients >10 kg); and total cholesterol concentration.
Scores range from 0 and 100, with higher scores indicating better functioning. *n=28 for LS mean change from baseline to week 24. ^†Analysis of change from baseline with odevixibat vs placebo based on ANCOVA model at each visit with baseline score as a covariate and treatment group and age category (<5 years, 5-7 years, 8-12 years, 13-18 years) as fixed effects. ANCOVA=analysis of covariance. LS=least squares. PedsQL=Paediatric Quality of Life Inventory.

[4] = tested on: patients with Alagille syndrome (ALGS); assay: ASSERT-EXT open-label extension: safety, TEAEs; assay type: in vivo, human
Method: ASSERT-EXT is a Phase 3, multi-center, open-label extension study designed to evaluate the long-term safety and efficacy of 120 μg/kg/day odevixibat in relieving pruritus in patients with ALGS. Patients who participated in the ASSERT trial (see Example 1) and met eligibility criteria for the ASSERT trial were eligible to participate. The duration of the treatment period is 72 weeks, followed by a 4-week Safety Follow-up Period. Clinic visits occur every 4 to 12 weeks. Patients who wish to continue receiving odevixibat after 72 weeks will have the opportunity to remain on treatment in an optional extension period with visits every 16 weeks until the drug is commercially available, provided continued use is supported by the risk-benefit profile, the patient has not been previously withdrawn or discontinued from the study, and the study is not terminated by the Sponsor. The 4-week Safety Follow-up Period will not occur for those who remain on treatment in the optional extension period.
Day 1 coincided with Week 24 in the ASSERT trial; however, if this was not possible due to logistic issues, patients enrolled in the ASSERT-EXT trial within 28 days of completion of the ASSERT trial. All patients in the ASSERT-EXT trial receive odevixibat 120 μg/kg/day. Two groups were analyzed up to an interim cut-off date of Sep. 9, 2022: treatment-naïve patients who received placebo in ASSERT (i.e., “placebo-odevixibat”) and patients who received odevixibat in ASSERT (i.e., “odevixibat-odevixibat”).
Safety Analysis. The primary safety analysis for this study included the incidence of total treatment emergent AEs (TEAEs) and TEAEs categorized by causality, severity, and seriousness assessments made by the investigator. Trends in safety were also evaluated for the following assessments: Physical examinations; Concomitant medications; Vital signs; Laboratory test results (including clinical chemistry, hematology, urinalysis, AFP, vitamins A, E, and 25-hydroxy vitamin D, and INR); Liver ultrasound and elastography (where available); and Discontinuations due to Aes.

CCCCC1(CCCC)CN(c2ccccc2)c2cc(SC)c(OCC(=O)N[C@@H](C(=O)N[C@@H](CC)C(=O)O)c3ccc(O)cc3)cc2S(=O)(=O)N1 [odevixibat, 1,1-dioxo-3,3-dibutyl-5-phenyl-7-methylthio-8-(N-{(R)-α-[N-((S)-1-carboxypropyl)carbamoyl]-4-hydroxybenzyl}carbamoylmethoxy)-2,3,4,5-tetrahydro-1,2,5-benzothiadiazepine]
Days seeing blood due to scratching, Mean (SD) % of Days ([1]; Baseline, n=50): 35% (34%)
Days sleeping with caregiver, Mean (SD) % of Days ([1]; Baseline, n=50): 43% (45%)
Days with help falling asleep, Mean (SD) % of Days ([1]; Baseline, n=50): 57% (45%)
Days with soothing, Mean (SD) % of Days ([1]; Baseline, n=50): 64% (43%)
Days seeing blood due to scratching, Mean (SD) % of Days ([1]; Weeks 33-36, n=21): 5.7% (14%)
Days sleeping with caregiver, Mean (SD) % of Days ([1]; Weeks 33-36, n=21): 10% (26%)
Days with help falling asleep, Mean (SD) % of Days ([1]; Weeks 33-36, n=21): 10% (18%)
Days with soothing, Mean (SD) % of Days ([1]; Weeks 33-36, n=21): 12% (25%)
Days seeing blood due to scratching, Mean (95% CI) Change From Baseline to Week 33-36 ([1]; n=21): −30% (−42%, −17%)***
Days sleeping with caregiver, Mean (95% CI) Change From Baseline to Week 33-36 ([1]; n=21): −44% (−64%, −24%)***
Days with help falling asleep, Mean (95% CI) Change From Baseline to Week 33-36 ([1]; n=21): −60% (−78%, −43%)***
Days with soothing, Mean (95% CI) Change From Baseline to Week 33-36 ([1]; n=21): −59% (−77%, −40%)***
Days seeing blood due to scratching, Baseline Mean (SE) ([2]; n=28): 35 (6) %
Days sleeping with caregiver, Baseline Mean (SE) ([2]; n=28): 40 (9) %
Days with help falling asleep, Baseline Mean (SE) ([2]; n=28): 59 (8) %
Days with soothing, Baseline Mean (SE) ([2]; n=28): 68 (8) %
Daytime tiredness, Baseline Mean (SE) ([2]; n=28, scale 0-4): 2.2 (0.2)
Days seeing blood due to scratching, Mean (SE) Change From Baseline ([2]; to weeks 21-24): −30 (5) %
Days sleeping with caregiver, Mean (SE) Change From Baseline ([2]; to weeks 21-24): −34 (8) %
Days with help falling asleep, Mean (SE) Change From Baseline ([2]; to weeks 21-24): −44 (8) %
Days with soothing, Mean (SE) Change From Baseline ([2]; to weeks 21-24): −53 (8) %
Days seeing blood due to scratching, Week 24 Mean (SE) ([2]; weeks 21-24, n=27): 5 (2) %
Days sleeping with caregiver, Week 24 Mean (SE) ([2]; weeks 21-24, n=27): 8 (5) %
Days with help falling asleep, Week 24 Mean (SE) ([2]; weeks 21-24, n=27): 15 (6) %
Days with soothing, Week 24 Mean (SE) ([2]; weeks 21-24, n=27): 16 (5) %
Daytime tiredness, Week 24 Mean (SE) ([2]; weeks 21-24, n=28, scale 0-4): 1.0 (0.2)
PedsQL Emotional Functioning, Mean (SD) at baseline ([3]; baseline, n=30): 55.8 (17.8)
PedsQL Physical Functioning, Mean (SD) at baseline ([3]; baseline, n=30): 71.6 (21.4)
PedsQL School Functioning, Mean (SD) at baseline ([3]; baseline, n=30): 63.3 (22.9)
PedsQL Social Functioning, Mean (SD) at baseline ([3]; baseline, n=30): 78.5 (18.8)
PedsQL Total Score, Mean (SD) at baseline ([3]; baseline, n=30, score 0-100): 67.8 (16.3)
PedsQL Emotional Functioning, LS mean (SE) change from baseline to week 24 ([3]; n=28): 21.0 (3.3)
PedsQL Physical Functioning, LS mean (SE) change from baseline to week 24 ([3]; n=28): 14.2 (2.9)
PedsQL School Functioning, LS mean (SE) change from baseline to week 24 ([3]; n=28): 13.3 (3.0)
PedsQL Social Functioning, LS mean (SE) change from baseline to week 24 ([3]; n=28): 5.1 (3.2)
PedsQL Total Score, LS mean (SE) change from baseline to week 24 ([3]; n=28, score 0-100): 13.5 (2.5)
Serious TEAEs ([4]; 2/49 patients, interim cut-off): 4%
drug-related serious TEAEs or TEAEs leading to discontinuation or dose reduction ([4]; interim cut-off): No drug-related serious TEAEs or TEAEs leading to discontinuation or dose reduction
incidence of drug-related diarrhea ([4]; n=49, interim cut-off): 4%
incidence of treatment-emergent diarrhea ([4]; n=49, interim cut-off): 16%
tolerability ([4]; treatment for ≥24 weeks): well tolerated
